Values joined by “and” are separate entries in the source; they are usually repeats but may differ in a detail not shown here. Equal entries are not always repeated. Non-standard residues stand in square brackets, D forms with d. Residues, ends and D or L forms follow the SMILES beside them. *: point of attachment. X1 = CC(C)CCC[C@@H](C)[C@H]1CC[C@H]2[C@@H]3CC=C4C[C@@H](OC(=O)C*)CC[C@]4(C)[C@H]3CC[C@]12C; Palmitoyl = CCCCCCCCCCCCCCCC(=O)*; PEG4 = NCCOCCOCCOCCOCCC(=O)O
Legend:
WIV1 S protein = assay type: cell-based, SL-CoV WIV1
HCoV-NL63 S protein = HCoV-NL63 S protein (Human coronavirus NL63, UniProt Q6Q1S2); experiment: cell-based; assay type: cell-based
Chain of HCoV-NL63 S protein (Q6Q1S2 19-1356 limits assumed): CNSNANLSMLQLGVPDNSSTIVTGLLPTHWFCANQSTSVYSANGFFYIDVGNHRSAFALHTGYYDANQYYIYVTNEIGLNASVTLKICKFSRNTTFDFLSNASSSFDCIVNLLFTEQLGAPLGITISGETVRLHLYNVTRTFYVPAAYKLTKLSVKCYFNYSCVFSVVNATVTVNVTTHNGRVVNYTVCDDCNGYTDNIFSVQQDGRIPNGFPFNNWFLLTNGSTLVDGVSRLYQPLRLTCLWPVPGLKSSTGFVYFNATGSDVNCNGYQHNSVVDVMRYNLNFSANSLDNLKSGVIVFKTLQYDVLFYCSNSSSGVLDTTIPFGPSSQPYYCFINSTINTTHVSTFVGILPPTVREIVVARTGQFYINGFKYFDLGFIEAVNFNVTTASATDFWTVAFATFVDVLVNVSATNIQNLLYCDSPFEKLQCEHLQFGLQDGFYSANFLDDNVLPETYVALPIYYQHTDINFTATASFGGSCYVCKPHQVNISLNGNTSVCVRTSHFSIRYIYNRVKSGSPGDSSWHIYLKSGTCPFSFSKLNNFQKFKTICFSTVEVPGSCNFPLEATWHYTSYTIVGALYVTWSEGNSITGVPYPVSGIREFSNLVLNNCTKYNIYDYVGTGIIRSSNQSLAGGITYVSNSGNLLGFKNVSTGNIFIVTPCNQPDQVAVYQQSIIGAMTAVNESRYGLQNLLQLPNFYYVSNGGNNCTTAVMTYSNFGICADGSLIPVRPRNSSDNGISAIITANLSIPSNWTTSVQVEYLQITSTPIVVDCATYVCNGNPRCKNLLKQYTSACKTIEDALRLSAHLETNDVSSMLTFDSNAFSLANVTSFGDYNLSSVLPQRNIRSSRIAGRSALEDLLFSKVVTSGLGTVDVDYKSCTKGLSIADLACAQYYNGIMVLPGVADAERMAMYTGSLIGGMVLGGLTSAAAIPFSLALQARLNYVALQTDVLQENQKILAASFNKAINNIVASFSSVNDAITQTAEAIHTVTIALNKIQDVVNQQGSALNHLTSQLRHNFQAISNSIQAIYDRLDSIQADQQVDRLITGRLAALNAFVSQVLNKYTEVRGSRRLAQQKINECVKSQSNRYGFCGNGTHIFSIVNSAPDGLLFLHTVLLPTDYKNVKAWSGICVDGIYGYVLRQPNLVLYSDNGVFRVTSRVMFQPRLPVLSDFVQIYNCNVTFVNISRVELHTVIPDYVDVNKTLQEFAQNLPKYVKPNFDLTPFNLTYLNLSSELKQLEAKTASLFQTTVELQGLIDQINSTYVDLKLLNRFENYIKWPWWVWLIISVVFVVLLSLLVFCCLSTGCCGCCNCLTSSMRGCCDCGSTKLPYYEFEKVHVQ

SARS-CoV S protein = SARS-CoV S protein (Severe acute respiratory syndrome coronavirus, UniProt P59594); experiment: cell-based; assay type: cell-based
SARS-CoV-2 S protein = SARS-CoV-2 S protein (Severe acute respiratory syndrome coronavirus 2, UniProt P0DTC2); experiment: cell-based; assay type: cell-based
MERS-CoV S protein = MERS-CoV S protein (Middle East respiratory syndrome-related coronavirus, UniProt K9N5Q8); experiment: cell-based; assay type: cell-based
Chain of MERS-CoV S protein (K9N5Q8 18-1353 limits assumed): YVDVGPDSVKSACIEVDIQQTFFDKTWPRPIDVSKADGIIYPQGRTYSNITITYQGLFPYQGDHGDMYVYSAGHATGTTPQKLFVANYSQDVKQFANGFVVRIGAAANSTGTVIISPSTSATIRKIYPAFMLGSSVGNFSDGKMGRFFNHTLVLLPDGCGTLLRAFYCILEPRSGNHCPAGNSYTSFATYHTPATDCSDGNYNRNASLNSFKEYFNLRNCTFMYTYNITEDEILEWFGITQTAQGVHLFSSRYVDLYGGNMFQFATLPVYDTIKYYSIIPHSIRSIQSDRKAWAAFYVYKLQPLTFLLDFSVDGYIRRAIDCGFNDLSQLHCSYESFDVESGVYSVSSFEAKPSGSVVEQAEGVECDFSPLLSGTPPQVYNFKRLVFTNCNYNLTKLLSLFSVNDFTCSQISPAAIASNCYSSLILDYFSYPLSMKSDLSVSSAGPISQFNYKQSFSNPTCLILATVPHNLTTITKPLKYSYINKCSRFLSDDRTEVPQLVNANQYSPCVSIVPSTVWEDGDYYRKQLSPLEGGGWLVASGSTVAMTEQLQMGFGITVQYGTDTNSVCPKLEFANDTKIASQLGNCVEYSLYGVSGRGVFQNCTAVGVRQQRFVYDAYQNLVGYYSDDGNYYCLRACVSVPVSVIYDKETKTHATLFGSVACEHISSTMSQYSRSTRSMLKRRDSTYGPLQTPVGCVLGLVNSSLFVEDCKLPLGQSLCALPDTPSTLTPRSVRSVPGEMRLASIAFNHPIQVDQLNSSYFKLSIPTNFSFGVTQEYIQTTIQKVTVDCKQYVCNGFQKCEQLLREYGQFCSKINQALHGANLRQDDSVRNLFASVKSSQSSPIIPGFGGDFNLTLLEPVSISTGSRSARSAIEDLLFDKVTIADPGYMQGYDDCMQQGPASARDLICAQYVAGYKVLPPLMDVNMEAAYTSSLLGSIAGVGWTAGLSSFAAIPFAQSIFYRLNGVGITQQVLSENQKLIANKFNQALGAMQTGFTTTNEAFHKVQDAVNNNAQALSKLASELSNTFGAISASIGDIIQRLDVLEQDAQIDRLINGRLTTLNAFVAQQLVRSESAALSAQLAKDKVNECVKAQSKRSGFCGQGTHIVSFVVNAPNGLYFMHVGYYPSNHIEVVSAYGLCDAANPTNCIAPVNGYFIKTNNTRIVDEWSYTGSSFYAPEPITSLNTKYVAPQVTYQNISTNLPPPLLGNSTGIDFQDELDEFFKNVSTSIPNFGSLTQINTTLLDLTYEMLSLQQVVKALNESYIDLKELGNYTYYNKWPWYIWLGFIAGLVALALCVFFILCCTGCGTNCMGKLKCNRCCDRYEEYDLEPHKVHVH

SHC014 S protein = assay type: cell-based, SL-CoV RsSHC014
HCoV-OC43 S protein = HCoV-OC43 S protein (Human coronavirus OC43, UniProt P36334); experiment: cell-based; assay type: cell-based
Rs3367 S protein = assay type: cell-based, SL-CoV Rs3367
HCoV-229E S protein = HCoV-229E S protein (Human coronavirus 229E, UniProt P15423); experiment: cell-based; assay type: cell-based
Chain of HCoV-229E S protein (P15423 16-1173 limits assumed): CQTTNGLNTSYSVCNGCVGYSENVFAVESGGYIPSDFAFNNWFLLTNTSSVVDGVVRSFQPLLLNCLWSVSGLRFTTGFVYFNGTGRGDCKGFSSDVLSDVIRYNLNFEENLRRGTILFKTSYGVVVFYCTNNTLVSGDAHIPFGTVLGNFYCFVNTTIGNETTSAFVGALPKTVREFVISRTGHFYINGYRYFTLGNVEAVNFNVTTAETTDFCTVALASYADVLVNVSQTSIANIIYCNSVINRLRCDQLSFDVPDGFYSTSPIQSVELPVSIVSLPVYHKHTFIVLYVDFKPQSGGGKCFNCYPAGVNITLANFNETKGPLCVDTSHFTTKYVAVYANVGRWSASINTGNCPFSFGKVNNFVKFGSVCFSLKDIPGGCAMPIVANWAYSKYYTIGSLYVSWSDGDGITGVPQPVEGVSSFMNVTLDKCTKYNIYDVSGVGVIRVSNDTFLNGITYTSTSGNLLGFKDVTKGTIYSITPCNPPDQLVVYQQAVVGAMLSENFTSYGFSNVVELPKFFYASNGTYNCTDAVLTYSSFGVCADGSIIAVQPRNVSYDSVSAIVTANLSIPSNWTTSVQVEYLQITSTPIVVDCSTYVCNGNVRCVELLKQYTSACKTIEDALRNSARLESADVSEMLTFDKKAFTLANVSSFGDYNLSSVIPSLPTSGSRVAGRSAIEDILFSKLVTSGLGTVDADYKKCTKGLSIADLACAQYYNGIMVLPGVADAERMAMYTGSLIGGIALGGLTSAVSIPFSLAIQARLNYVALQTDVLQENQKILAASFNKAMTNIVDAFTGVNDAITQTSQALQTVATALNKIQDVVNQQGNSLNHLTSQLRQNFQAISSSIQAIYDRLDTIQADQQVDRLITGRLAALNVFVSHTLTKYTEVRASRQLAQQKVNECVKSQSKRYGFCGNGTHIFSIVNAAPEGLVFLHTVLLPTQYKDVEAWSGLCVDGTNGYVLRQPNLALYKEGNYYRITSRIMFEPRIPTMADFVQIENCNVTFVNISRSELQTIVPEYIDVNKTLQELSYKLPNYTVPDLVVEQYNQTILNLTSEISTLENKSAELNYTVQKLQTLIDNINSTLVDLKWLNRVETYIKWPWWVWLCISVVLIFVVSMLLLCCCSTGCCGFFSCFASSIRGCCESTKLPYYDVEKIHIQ

live HCoV-229E = conditions: 1 h
SARS-CoV PsV = conditions: 72 h
HCoV-229E PsV = conditions: 72 h
live HCoV-OC43 = conditions: 1 h
SARS-CoV-2 PsV = conditions: PsV, 72 h
live SARS-CoV-2 = conditions: live, 72 h
WIV1 PsV = conditions: 72 h
HCoV-NL63 PsV = conditions: 72 h
live HCoV-NL63 = conditions: 1 h
MERS-CoV PsV = conditions: 72 h
Rs3367 PsV = conditions: 72 h
live MERS-CoV = conditions: 72 h
HCoV-OC43 PsV = conditions: 72 h

Compound: LKVLLYEEFKLLESLIMEILEYQKDSDIKENAEDTK [EK1-scrambled, reference compound]
- Inhibitory activity on WIV1 S-mediated cell–cell fusion (WIV1 S protein): no inhibitory activity
- Inhibitory activity on HCoV-NL63 S-mediated cell–cell fusion (HCoV-NL63 S protein): no inhibitory activity
- Inhibitory activity on SARS-CoV S-mediated cell–cell fusion (SARS-CoV S protein): no inhibitory activity
- Inhibitory activity on SARS-CoV-2 S-mediated cell–cell fusion (SARS-CoV-2 S protein): no inhibitory activity
- Inhibitory activity on MERS-CoV S-mediated cell–cell fusion (MERS-CoV S protein): no inhibitory activity
- Inhibitory activity on SHC014 S-mediated cell–cell fusion (SHC014 S protein): no inhibitory activity
- Inhibitory activity on HCoV-OC43 S-mediated cell–cell fusion (HCoV-OC43 S protein): no inhibitory activity
- Inhibitory activity on Rs3367 S-mediated cell–cell fusion (Rs3367 S protein): no inhibitory activity
- Inhibitory activity on HCoV-229E S-mediated cell–cell fusion (HCoV-229E S protein): no inhibitory activity

Compound: CCCCCCCCCCCCCCCC(=O)SC[C@H](NC(=O)CCOCCOCCOCCOCCNC(=O)[C@H](CC(C)C)NC(=O)[C@H](CCC(=O)O)NC(=O)[C@H](CCCCN)NC(=O)[C@H](CC(C)C)NC(=O)[C@H](CC(=O)O)NC(=O)[C@@H](NC(=O)[C@H](Cc1ccc(O)cc1)NC(=O)[C@H](CO)NC(=O)[C@H](CCC(=O)O)NC(=O)[C@H](CCC(=O)O)NC(=O)[C@H](CC(C)C)NC(=O)[C@H](CCCCN)NC(=O)[C@H](CCCCN)NC(=O)[C@@H](NC(=O)[C@H](C)NC(=O)[C@H](CCC(=O)O)NC(=O)[C@H](CCC(=O)O)NC(=O)[C@H](CC(C)C)NC(=O)[C@H](CCCCN)NC(=O)[C@H](CCCCN)NC(=O)[C@H](CCSC)NC(=O)[C@H](CCC(=O)O)NC(=O)[C@H](Cc1ccc(O)cc1)NC(=O)[C@H](CCC(=O)O)NC(=O)[C@H](CC(C)C)NC(=O)[C@H](CC(=O)O)NC(=O)[C@H](CC(C)C)NC(=O)[C@H](Cc1ccccc1)NC(=O)[C@@H](NC(=O)[C@@H](NC(=O)[C@H](CC(N)=O)NC(=O)[C@@H](NC(=O)[C@H](CCC(N)=O)NC(=O)[C@H](CC(=O)O)NC(=O)[C@H](CC(C)C)NC(=O)[C@@H](N)CO)[C@@H](C)CC)C(C)C)[C@@H](C)O)[C@@H](C)CC)[C@@H](C)CC)C(N)=O [EK1P] (H-SLDQINVTFLDLEYEMKKLEEAIKKLEESYIDLKEL[PEG4]C(Palmitoyl)-NH2)
- Inhibition of SARS-CoV-2 mediated cell–cell fusion at 2.5 μM (SARS-CoV-2 S protein): completely inhibit

Compound: CC[C@H](C)[C@H](NC(=O)[C@H](C)NC(=O)[C@H](CCC(=O)O)NC(=O)[C@H](CCC(=O)O)NC(=O)[C@H](CC(C)C)NC(=O)[C@H](CCCCN)NC(=O)[C@H](CCCCN)NC(=O)[C@H](CCSC)NC(=O)[C@H](CCC(=O)O)NC(=O)[C@H](Cc1ccc(O)cc1)NC(=O)[C@H](CCC(=O)O)NC(=O)[C@H](CC(C)C)NC(=O)[C@H](CC(=O)O)NC(=O)[C@H](CC(C)C)NC(=O)[C@H](Cc1ccccc1)NC(=O)[C@@H](NC(=O)[C@@H](NC(=O)[C@H](CC(N)=O)NC(=O)[C@@H](NC(=O)[C@H](CCC(N)=O)NC(=O)[C@H](CC(=O)O)NC(=O)[C@H](CC(C)C)NC(=O)[C@@H](N)CO)[C@@H](C)CC)C(C)C)[C@@H](C)O)C(=O)N[C@@H](CCCCN)C(=O)N[C@@H](CCCCN)C(=O)N[C@@H](CC(C)C)C(=O)N[C@@H](CCC(=O)O)C(=O)N[C@@H](CCC(=O)O)C(=O)N[C@@H](CO)C(=O)N[C@@H](Cc1ccc(O)cc1)C(=O)N[C@H](C(=O)N[C@@H](CC(=O)O)C(=O)N[C@@H](CC(C)C)C(=O)N[C@@H](CCCCN)C(=O)N[C@@H](CCC(=O)O)C(=O)N[C@@H](CC(C)C)C(=O)O)[C@@H](C)CC [EK1]
- IC50 (HCoV-NL63 S protein): 0.751 µM
- IC50 (live HCoV-229E): 4.38 µM
- IC50 (SARS-CoV PsV): 3.24 µM
- IC50 (HCoV-229E PsV): 3.96 µM
- IC50 (live HCoV-OC43): 1.55 µM
- IC50 (SARS-CoV-2 PsV): 2.38 µM
- IC50 (live SARS-CoV-2): 2.47 µM
- IC50 (WIV1 PsV): 5.42 µM
- IC50 (HCoV-NL63 PsV): 7.67 µM
- IC50 (live HCoV-NL63): 3.69 µM
- IC50 (MERS-CoV PsV): 0.632 µM
- IC50 (SARS-CoV S protein): 0.409 µM
- IC50 (SARS-CoV-2 S protein; IC50, SARS-CoV-2 S-mediated cell–cell fusion): 0.287 µM and 0.315 µM
- IC50 (MERS-CoV S protein): 0.239 µM
- IC50 (Rs3367 PsV): 6.01 µM
- IC50 (HCoV-OC43 S protein): 0.788 µM
- IC50 (live MERS-CoV): 0.802 µM
- IC50 (HCoV-OC43 PsV): 1.4 µM
- IC50 (HCoV-229E S protein): 0.207 µM

Compound: CC[C@H](C)[C@H](NC(=O)[C@H](C)NC(=O)[C@H](CCC(=O)O)NC(=O)[C@H](CCC(=O)O)NC(=O)[C@H](CC(C)C)NC(=O)[C@H](CCCCN)NC(=O)[C@H](CCCCN)NC(=O)[C@H](CCSC)NC(=O)[C@H](CCC(=O)O)NC(=O)[C@H](Cc1ccc(O)cc1)NC(=O)[C@H](CCC(=O)O)NC(=O)[C@H](CC(C)C)NC(=O)[C@H](CC(=O)O)NC(=O)[C@H](CC(C)C)NC(=O)[C@H](Cc1ccccc1)NC(=O)[C@@H](NC(=O)[C@@H](NC(=O)[C@H](CC(N)=O)NC(=O)[C@@H](NC(=O)[C@H](CCC(N)=O)NC(=O)[C@H](CC(=O)O)NC(=O)[C@H](CC(C)C)NC(=O)[C@@H](N)CO)[C@@H](C)CC)C(C)C)[C@@H](C)O)C(=O)N[C@@H](CCCCN)C(=O)N[C@@H](CCCCN)C(=O)N[C@@H](CC(C)C)C(=O)N[C@@H](CCC(=O)O)C(=O)N[C@@H](CCC(=O)O)C(=O)N[C@@H](CO)C(=O)N[C@@H](Cc1ccc(O)cc1)C(=O)N[C@H](C(=O)N[C@@H](CC(=O)O)C(=O)N[C@@H](CC(C)C)C(=O)N[C@@H](CCCCN)C(=O)N[C@@H](CCC(=O)O)C(=O)N[C@@H](CC(C)C)C(=O)NCCOCCOCCOCCOCCC(=O)N[C@@H](CSCC(=O)O[C@H]1CC[C@@]2(C)C(=CC[C@H]3[C@@H]4CC[C@H]([C@H](C)CCCC(C)C)[C@@]4(C)CC[C@@H]32)C1)C(N)=O)[C@@H](C)CC [EK1C] (H-SLDQINVTFLDLEYEMKKLEEAIKKLEESYIDLKEL[PEG4]C(X1)-NH2)
- IC50 (SARS-CoV-2 PsV): 0.139 µM
- Inhibition of SARS-CoV-2 mediated cell–cell fusion at 2.5 μM (SARS-CoV-2 S protein): completely inhibit

Compound: CC[C@H](C)[C@H](NC(=O)[C@H](C)NC(=O)[C@H](CCC(=O)O)NC(=O)[C@H](CCC(=O)O)NC(=O)[C@H](CC(C)C)NC(=O)[C@H](CCCCN)NC(=O)[C@H](CCCCN)NC(=O)[C@H](CCSC)NC(=O)[C@H](CCC(=O)O)NC(=O)[C@H](Cc1ccc(O)cc1)NC(=O)[C@H](CCC(=O)O)NC(=O)[C@H](CC(C)C)NC(=O)[C@H](CC(=O)O)NC(=O)[C@H](CC(C)C)NC(=O)[C@H](Cc1ccccc1)NC(=O)[C@@H](NC(=O)[C@@H](NC(=O)[C@H](CC(N)=O)NC(=O)[C@@H](NC(=O)[C@H](CCC(N)=O)NC(=O)[C@H](CC(=O)O)NC(=O)[C@H](CC(C)C)NC(=O)[C@@H](N)CO)[C@@H](C)CC)C(C)C)[C@@H](C)O)C(=O)N[C@@H](CCCCN)C(=O)N[C@@H](CCCCN)C(=O)N[C@@H](CC(C)C)C(=O)N[C@@H](CCC(=O)O)C(=O)N[C@@H](CCC(=O)O)C(=O)N[C@@H](CO)C(=O)N[C@@H](Cc1ccc(O)cc1)C(=O)N[C@H](C(=O)N[C@@H](CC(=O)O)C(=O)N[C@@H](CC(C)C)C(=O)N[C@@H](CCCCN)C(=O)N[C@@H](CCC(=O)O)C(=O)N[C@@H](CC(C)C)C(=O)NCC(=O)N[C@@H](CO)C(=O)NCC(=O)NCCOCCOCCOCCOCCC(=O)N[C@@H](CSCC(=O)O[C@H]1CC[C@@]2(C)C(=CC[C@H]3[C@@H]4CC[C@H]([C@H](C)CCCC(C)C)[C@@]4(C)CC[C@@H]32)C1)C(N)=O)[C@@H](C)CC [EK1C3]
- IC50 (SARS-CoV-2 PsV): 0.0864 µM
- Fold more potent than EK1C1, SARS-CoV-2 S-mediated cell–cell fusion (SARS-CoV-2 S protein): 4 fold

Source: PMC7104723 (Cell Research, 2020)
